Assay results as given in patent US20250129101A1, “Compound, Pharmaceutical Composition Comprising the Same and Method for Treating Cancer Using the Same” (NATIONAL TSING HUA UNIVERSITY, priority 2023, published 2025).
Where two headings read alike, the source gives them in different places.

Legend:
[1] = system: 4T1 R4 cells; assay: Cell viability assay, 4T1 R4 cells; type: cell-based, mouse; details: for IC50: 72 hr; for CI (combination index), MTA with 7S9: 2 μM 7S9, Chou and Talalay method; for Fold change in chemosensitivity (IC50 single / 7S9 combination): 2 μM 7S9
Description: (§1) MCF-7, MDA-MB-231, MDA-MB-468, Hs578T, 4T1, and HeLa cell lines stably expressing H2B-mCherry and eGFP-tubulin (kindly provided by Dr. Anthony A. Hyman, Max-Planck-Institute for Molecular Cell Biology and Genetics, Dresden, Germany) were cultured in high-glucose Dulbecco's Modified Eagle Medium (DMEM). SK-BR-3 cells were cultured in McCoy's Modified 5a Medium. Hs578T cells were cultured in high-glucose DMEM supplemented with an additional 0.01 mg/mL bovine insulin. […] All mentioned media were supplemented with 10% fetal bovine serum (Gibco) and 1% Penicillin/Streptomycin (Corning), and cells were incubated at 37° C. in a humidified atmosphere containing 5% CO2. HEK293 cells were cultured in HE300 medium (GMEP incorporated, Japan) and maintained in suspension culture with 125 rpm and 8% CO2.
(§2) The cancer cells were cultured in a 96-well plate at a confluence of 1000-2000 cells/well with indicated drugs for specific days. When the time was up, the culture medium in the plate was aspirated and replaced with a prepared CellTiter-Glo reagent/DMEM mixture (1:1 mix of CellTiter-Glo reagent and serum-supplemented DMEM). After incubation for 10 min, the luminescence (proportional to the number of living cells) was measured with an ELISA plate reader to determine the cell viability.

[2] = system: 4T1 R8 cells; assay: Cell viability assay, 4T1 R8 cells; type: cell-based, mouse; details: for IC50: 72 hr; for CI (combination index), MTA with 7S9: 2 μM 7S9, Chou and Talalay method; for Fold change in chemosensitivity (IC50 single / 7S9 combination): 2 μM 7S9
Description: as §1, §2

[3] = molecular target: T1, KIF2C (Homo sapiens, UniProt Q99661); assay: In vitro validation: KIF2C kinesin activity, malachite green-based phosphate colorimetric assay; type: biochemical; details: concentration that inhibits 50% of KIF2C activity
T1 construct: KIF2C (216-598 a.a.); 6xHis (C); made in house; host or cells: E. coli BL21 (DE3), pET-28a
T1 sequence (Q99661 216-598): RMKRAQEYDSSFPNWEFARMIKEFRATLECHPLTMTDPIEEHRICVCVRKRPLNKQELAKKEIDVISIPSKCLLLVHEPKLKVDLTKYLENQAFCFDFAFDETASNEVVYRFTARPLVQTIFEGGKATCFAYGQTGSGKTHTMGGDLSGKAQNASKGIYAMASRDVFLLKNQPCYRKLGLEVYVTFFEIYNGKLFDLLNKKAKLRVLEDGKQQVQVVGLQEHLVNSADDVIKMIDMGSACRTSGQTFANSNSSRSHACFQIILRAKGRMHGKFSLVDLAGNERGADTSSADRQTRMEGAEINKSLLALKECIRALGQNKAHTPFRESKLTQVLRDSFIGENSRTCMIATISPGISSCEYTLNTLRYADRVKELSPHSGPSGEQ
In short: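 KIF2C sN+M construct (aa 216-598, C-terminal 6×His, E. coli-expressed) ATPase activity with microtubules from porcine brain tubulin or HEK293 (293Fs) cells in BRB80 (80 mM PIPES pH 6.8, 1 mM GTP, 10% DMSO), 37° C for 2 hr. Released phosphate detected by malachite green reagent, 10 min, A650.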

[4] = system: MDA-MB-231 cells; assay: Cell validation: cytotoxicity in MDA-MB-231 cells (CellTiter-Glo); type: cell-based; details: for IC50: Homo sapiens; for IC50 / Cell validation (IC50): cytotoxicity in MDA-MB-231 cells
In short: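 MDA-MB-231 cells were seeded at 2000 cells/well and exposed to compounds for the specified number of days. Medium was then replaced with a 1:1 CellTiter-Glo reagent/serum-supplemented DMEM mix for 10 min, and viability was read as luminescence, proportional to living cell number.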

[5] = Mus musculus, drug alone, read-out: IC50 (nM), Single
[6] = MTA with 2 μM 7S9, read-out: IC50 (nM), Combination

SMILES	IC50 [1, 5] [nM]	IC50 [2, 5] [nM]	EC50 [3] [nM]	IC50 [4] [nM]	Cell validation (IC50) [4]	other results
C/C(=C\c1csc(C)n1)[C@@H]1C[C@@H]2O[C@]2(C)CCC[C@H](C)[C@H](O)[C@@H](C)C(=O)C(C)(C)[C@@H](O)CC(=O)N1 [Ixabepilone, ixabepilone]	358	234				
CC(=O)O[C@@]12CO[C@@H]1C[C@H](O)[C@@]1(C)C(=O)[C@H](O)C3=C(C)[C@@H](OC(=O)[C@H](O)[C@@H](NC(=O)OC(C)(C)C)c4ccccc4)C[C@@](O)([C@@H](OC(=O)c4ccccc4)[C@H]21)C3(C)C [Docetaxel, docetaxel]	358	208				CI (combination index), MTA with 7S9 [1]: 0.45; CI (combination index), MTA with 7S9 [2]: 0.50
CC1=C(C(=O)OC(C)C)C(c2ccc(Cl)cc2)n2c(s/c(=C\c3ccc(OCC#N)cc3)c2=O)=N1 (stereo not drawn) [38S0 (117), isopropyl (Z)-5-(4-chlorophenyl)-2-(4-(cyanomethoxy)benzylidene)-7-methyl-3-oxo-2,3-dihydro-5H-thiazolo[3,2-a]pyrimidine-6-carboxylate]			> 100000	> 50000		
CC1=C(C(=O)OC(C)C)C(c2ccc(Cl)cc2)n2c(s/c(=C\c3ccc(OCC(=O)N4CCN(C)CC4)cc3)c2=O)=N1 (stereo not drawn) [6S0 (13), propan-2-yl (2Z)-5-(4-chlorophenyl)-7-methyl-2-(4-(2-(4-methylpiperazin-1-yl)-2-oxoethoxy)benzylidene)-3-oxo-2,3-dihydro-5H-[1,3]thiazolo[3,2-a]pyrimidine-6-carboxylate]			50000 to 100000		+ +	cytotoxicity on MDA-MB-231 cells (in words) ([4]; 72 hr): showed cytotoxicity
CC1=C(C(=O)OC(C)C)C(c2ccc(Cl)cc2)n2c(s/c(=C\c3ccc(OCC(=O)NS(=O)(=O)C(F)(F)F)cc3)c2=O)=N1 (stereo not drawn) [56S0 (121), isopropyl (Z)-5-(4-chlorophenyl)-7-methyl-3-oxo-2-(4-(2-oxo-2-((trifluoromethyl)sulfonamido)ethoxy)benzylidene)-2,3-dihydro-5H-thiazolo[3,2-a]pyrimidine-6-carboxylate]			> 100000	> 50000		
CCOC(=O)C1=C(C)N=c2s/c(=C\c3ccc(OCC(=O)O)cc3)c(=O)n2[C@@H]1c1ccc(Cl)cc1 [54S0 (130)]			50000 to 100000	> 50000		
CCOC(=O)C1=C(C)N=c2s/c(=C\c3ccc(OCC(=O)OC)cc3)c(=O)n2[C@H]1c1ccc(Cl)cc1 [45S0 (129)]			> 100000	> 50000		
CCC1=C[C@@H]2CN(C1)Cc1c([nH]c3ccccc13)[C@@](C(=O)OC)(c1cc3c(cc1OC)N(C)[C@H]1[C@@](O)(C(=O)OC)[C@H](OC(C)=O)[C@]4(CC)C=CCN5CC[C@]31[C@@H]54)C2 [Vinorelbine, vinorelbine]	159	104				Fold change in chemosensitivity (IC50 single / 7S9 combination) [1]: 69; CI (combination index), MTA with 7S9 [1]: 0.46; Fold change in chemosensitivity (IC50 single / 7S9 combination) [2]: 43; CI (combination index), MTA with 7S9 [2]: 0.51
CCN1CCN(C(=O)COc2ccc(/C=c3\sc4n(c3=O)C(c3ccc(N(C)C)cc3)C(C(=O)OC(C)(C)C)=C(C)N=4)cc2)CC1 (stereo not drawn) [Compound 148]			< 50000		+ +	
CC1=C(C(=O)OC(C)C)C(c2ccc(N(C)C)cc2)n2c(s/c(=C\c3ccc(OCC(=O)N4CCN(C)CC4)cc3)c2=O)=N1 (stereo not drawn) [19S0 (56), isopropyl (Z)-5-(4-(dimethylamino)phenyl)-7-methyl-2-(4-(2-(4-methylpiperazin-1-yl)-2-oxoethoxy)benzylidene)-3-oxo-2,3-dihydro-5H-thiazolo[3,2-a]pyrimidine-6-carboxylate]			< 50000		+ +	
CC1=C(C(=O)OC(C)C)C(c2ccc(Cl)cc2)n2c(s/c(=C\c3ccc(OCC(=O)N4CCC(N5CCN(C)CC5)CC4)cc3)c2=O)=N1 (stereo not drawn) [24S0 (19), isopropyl (Z)-5-(4-chlorophenyl)-7-methyl-2-(4-(2-(4-(4-methylpiperazin-1-yl)piperidin-1-yl)-2-oxoethoxy)benzylidene)-3-oxo-2,3-dihydro-5H-thiazolo[3,2-a]pyrimidine-6-carboxylate]			< 50000		+ + + +	
CCN1CCN(C(=O)COc2ccc(/C=c3\sc4n(c3=O)C(c3ccc(N(C)C)cc3)C(C(=O)OC(C)C)=C(C)N=4)cc2)CC1 (stereo not drawn) [Compound 147]			< 50000		+ +	
C=C1C[C@@H]2CC[C@@]34C[C@H]5O[C@H]6[C@@H](O3)[C@H]3O[C@H](CC[C@@H]3O[C@H]6[C@H]5O4)CC(=O)C[C@@H]3[C@@H](OC)[C@@H](C[C@H](O)CN)O[C@H]3C[C@H]3O[C@@H](CC[C@@H]1O2)C[C@@H](C)C3=C [Eribulin, eribulin]	442	284				Fold change in chemosensitivity (IC50 single / 7S9 combination) [1]: 30; CI (combination index), MTA with 7S9 [1]: 0.48; IC50 [1, 6]: 14.5 nM; Fold change in chemosensitivity (IC50 single / 7S9 combination) [2]: 21; CI (combination index), MTA with 7S9 [2]: 0.54; IC50 [2, 6]: 13.6 nM
